According to US20240058344A1, “METHODS OF TREATING NEURODEGENERATIVE DISORDERS AND STAT3-LINKED CANCERS USING SUPPRESSORS OF ELECTRON LEAK” (Cornell University, priority 2020, published 2024):

What was measured:
primary astrocytes = experiment: Intracellular ATP levels in primary astrocytes; type: cell-based
Excerpt: Antimycin A and myxothiazol were used as positive controls to inhibit mitochondrial respiration and ATP production. n=3 wells per condition. ***p<0.001 vs. vehicle, mixed-effects model with Dunnett's multiple comparisons test.

astrocytes = experiment: Oxygen consumption rates (mitochondrial respiration) in astrocytes; type: cell-based
Excerpt: Oxygen consumption rates (OCR) and maximal consumption rates are shown for indicated S3QEL2 concentrations and time points. Antimycin and rotenone were used as positive controls to inhibit mitochondrial respiration. ***p<0.001 vs. vehicle, two-way repeated measures ANOVA with Dunnett's multiple comparisons test.

Molecule	Intracellular ATP levels (primary astrocytes)	Mitochondrial respiration (oxygen consumption rates, OCR) (astrocytes)
CO/C(=C/C(N)=O)[C@H](C)[C@H](/C=C/c1csc(-c2csc([C@@H](C)/C=C/C=C/C(C)C)n2)n1)OC [myxothiazol]	greatly reduce	–
C=C(C)[C@H]1Cc2c(ccc3c2O[C@@H]2COc4cc(OC)c(OC)cc4[C@@H]2C3=O)O1 [rotenone]	–	greatly reduce
antimycin A	greatly reduce	greatly reduce
